The values that follow are results of earlier work, collected in patent US20260125514A1, “CROSSLINKED POLYMERS AND THEIR USES” (UNIVERSITÉ CÔTE D'AZUR, priority 2022, published 2026).

For this series the following is noted: free, non crosslinked caulerpenyne; Parent-Massin (1996).

As to `CC(=O)O/C=C(/C=C/OC(C)=O)[C@H](C/C=C(\C)C#CC=C(C)C)OC(C)=O` [caulerpenyne, Caulerpenyne], the toxicity result is “toxicity”.
